Molecular target: T1, h P2X3 (Homo sapiens, UniProt P56373)
T1 sequence (P56373 1-397): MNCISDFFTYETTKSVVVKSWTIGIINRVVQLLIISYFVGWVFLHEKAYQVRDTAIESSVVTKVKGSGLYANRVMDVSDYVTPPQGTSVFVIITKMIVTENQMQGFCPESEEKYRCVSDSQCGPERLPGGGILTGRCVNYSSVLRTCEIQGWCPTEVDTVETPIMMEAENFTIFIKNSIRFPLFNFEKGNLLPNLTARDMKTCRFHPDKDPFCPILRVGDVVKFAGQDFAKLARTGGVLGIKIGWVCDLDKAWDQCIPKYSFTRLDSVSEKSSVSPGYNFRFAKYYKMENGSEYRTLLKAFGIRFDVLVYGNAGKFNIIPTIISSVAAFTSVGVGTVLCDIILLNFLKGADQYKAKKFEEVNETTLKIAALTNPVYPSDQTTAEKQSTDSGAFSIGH
Assay: In vitro electrophysiology assay for P2X3 (automated whole-cell patch clamp, α,β-MeATP agonist)
Format: cell-based
Settings: Table 2; 800 nM α,β-MeATP, peak current; read-out: h P2X3 (pIC50 range of activity) (converted)
Method: In Vitro Electrophysiology Assay for P2X3
Cells expressing P2X3 receptors were grown according to standard practice and maintained at 37° C. in a 5% humidified CO2 atmosphere. The cells were seeded into T175 flask 2 days prior to the day of the assay and dissociated from the flasks using TrypLE when grown to confluence of 80-90%. The dissociated cells were resuspended in serum free media at a cell density of 3×10^6 cells/ml and loaded onto the Sophion Qube automated patch-clamp system. The extracellular assay buffer contained 145 mM NaCl, 4 mM KCl, 2 mM CaCl2, 1 mM MgCl2, 10 mM HEPES, and 10 mM glucose at pH 7.4. The intracellular assay solution contained 140 mM CsF, 10 mM NaCl, 10 mM EGTA, 10 mM HEPES at pH 7.2. Agonist stock solutions were prepared in H2O and diluted in bath solution prior to use. All antagonists were prepared as 10 mM stock solutions in DMSO and diluted in bath solution prior to use. All experiments were performed under the whole-cell patch clamp configuration at room temperature with 384 individual cells being voltage clamped at −60 mV simultaneously on the Sophion Qube instrument. Two baseline responses were established with the application of α,β-MeATP (800 nM), with the subsequent agonist applications being washed out using extracellular assay buffer containing 0.5 U/ml apyrase. Following the second agonist application, antagonist was incubated in the absence of α,β-MeATP for 10 minutes. After antagonist preincubation, 800 nM α,β-MeATP and antagonist were co-administered to determine the inhibitory effect of the antagonist. One concentration of an antagonist was assessed against a single cell, with different concentrations of the antagonist applied to other cells on the 384 recording substrate. The control P2X3 current amplitude was taken from the peak current amplitude from the second agonist response prior to preincubation with antagonist. The peak P2X3 current amplitude in the presence of antagonist was used to calculate the inhibitory effect at each concentration of the antagonist according to the following equation:
Percentage inhibition of P2X3=(P2X3 control peak amplitude−P2X3 antagonist peak amplitude)/P2X3 control peak amplitude)*100
Concentration-response curves were constructed from ten different concentrations with each concentration of antagonist tested on at least two individual cells. The concentration of the antagonist to inhibit P2X3 current by 50% (IC50) was determined by fitting the data with the following equation:
Y=a+[(b−a)/(1+10^((log c−x)d)]
Where ‘a’ is minimum response, ‘b’ is maximum response, ‘c’ is IC50 and ‘d’ is Hill slope.

Row | IC50 | SMILES
1 | 316 to 3160 nM | Cc1ccc(CNc2ncnc3c(OCC4(C(F)(F)F)CC4)cc(-c4ccc(F)cc4)cc23)nn1 [Example 51, 6-(4-fluorophenyl)-N-[(6-methylpyridazin-3-yl)methyl]-8-[[1-(trifluoromethyl)cyclopropyl]methoxy]quinazolin-4-amine]
2 | 316 to 3160 nM | C[C@@H](Nc1ncnc2c(OCC3(C(=O)O)CCCCC3)cc(-c3ccc(F)cc3)cc12)c1cnc(C(F)(F)F)nc1 [Example 48, (R)-1-(((6-(4-fluorophenyl)-4-((1-(2-(trifluoromethyl)pyrimidin-5-yl)ethyl)amino)quinazolin-8-yl)oxy)methyl)cyclohexane-1-carboxylic acid]
3 | < 316 nM | C[C@@H](Nc1ncnc2c(OCc3cc(O)no3)cc(-c3ccc(F)cc3)cc12)c1cnc(C(F)(F)F)nc1 [Example 38, (R)-5-(((6-(4-fluorophenyl)-4-((1-(2-(trifluoromethyl)pyrimidin-5-yl)ethyl)amino)quinazolin-8-yl)oxy)methyl)isoxazol-3-ol]
4 | 316 to 3160 nM | CC(=O)N1CC[C@@H](Oc2cc(-c3ccc(F)cc3)cc3c(N[C@H](C)c4cnc(C(F)(F)F)nc4)ncnc23)C1 [Example 30]
5 | 316 to 3160 nM | CC(=O)N1CCC(Oc2cc(-c3ccc(F)cc3)cc3c(N[C@H](C)c4cnc(C(F)(F)F)nc4)ncnc23)CC1 [Example 35, (R)-1-(4-((6-(4-fluorophenyl)-4-((1-(2-(trifluoromethyl)pyrimidin-5-yl)ethyl)amino)quinazolin-8-yl)oxy)piperidin-1-yl)ethan-1-one]
6 | < 316 nM | Cc1nc([C@@H](C)Nc2ncnc3c(S(=O)(=O)N4CCC(O)CC4)cc(-c4ccc(F)cc4)cc23)no1 [Example 20, (R)-1-((6-(4-fluorophenyl)-4-((1-(5-methyl-1,2,4-oxadiazol-3-yl)ethyl)amino)quinazolin-8-yl)sulfonyl)piperidin-4-ol]
7 | 316 to 3160 nM | CC(=O)N[C@H]1CC[C@@H](Oc2cc(-c3ccc(F)cc3)cc3c(N[C@H](C)c4cnc(C(F)(F)F)nc4)ncnc23)CC1 [Example 32, N-((1S,4s)-4-((6-(4-fluorophenyl)-4-(((R)-1-(2-(trifluoromethyl)pyrimidin-5-yl)ethyl)amino)quinazolin-8-yl)oxy)cyclohexyl)acetamide]
8 | 316 to 3160 nM | C[C@@H](Nc1ncnc2c(OC3CCN(CC(F)(F)F)CC3)cc(-c3ccc(F)cc3)cc12)c1cnc(C(F)(F)F)nc1 [Example 36]
9 | < 316 nM | C[C@@H](Nc1ncnc2c(OCC(=O)NS(=O)(=O)c3ccccc3)cc(-c3ccc(F)cc3)cc12)c1cnc(C(F)(F)F)nc1 [Example 40, (R)-2-((6-(4-fluorophenyl)-4-((1-(2-(trifluoromethyl)pyrimidin-5-yl)ethyl)amino)quinazolin-8-yl)oxy)-N-(phenylsulfonyl)acetamide]
10 | 316 to 3160 nM | CC(=O)N1CC[C@H](Oc2cc(-c3ccc(F)cc3)cc3c(N[C@H](C)c4cnc(C(F)(F)F)nc4)ncnc23)C1 [Example 31]
11 | < 316 nM | C[C@@H](Nc1ncnc2c(OCC3(O)COC3)cc(-c3ccc(F)cc3)cc12)c1cnc(C(F)(F)F)nc1 [Example 37, (R)-3-(((6-(4-fluorophenyl)-4-((1-(2-(trifluoromethyl)pyrimidin-5-yl)ethyl)amino)quinazolin-8-yl)oxy)methyl)oxetan-3-ol]

The remaining lines, values behind:

Row | SMILES | IC50
12 | Cc1ccc(CNc2ncnc3c(OCC#N)cc(-c4ccc(F)cc4)cc23)nn1 [Example 53] | < 316 nM
13 | Cc1ccc(CNc2ncnc3c(OC4CN(C(=O)OC(C)(C)C)C4)cc(-c4ccc(F)cc4)cc23)nn1 [Example 52, tert-butyl 3-[6-(4-fluorophenyl)-4-[(6-methylpyridazin-3-yl)methylamino]quinazolin-8-yl]oxyazetidine-1-carboxylate] | 316 to 3160 nM
14 | Cc1ccc(CNc2ncnc3c(OCC(=O)NCC(F)(F)F)cc(-c4ccc(F)cc4)cc23)nn1 [Example 61, 2-[6-(4-fluorophenyl)-4-[(6-methylpyridazin-3-yl)methylamino]quinazolin-8-yl]oxy-N-(2,2,2-trifluoroethyl)acetamide] | 316 to 3160 nM
15 | Cc1ccc([C@@H](C)Nc2ncnc3c([S+]([O-])C4COC4)cc(-c4ccc(F)cc4)cc23)nn1 (stereo partly drawn) [Example 29, 6-(4-fluorophenyl)-N-((R)-1-(6-methylpyridazin-3-yl)ethyl)-8-(oxetan-3-ylsulfinyl)quinazolin-4-amine] | 3160 to 31600 nM
16 | Cc1nc([C@@H](C)Nc2ncnc3c(S(=O)(=O)N4CCNCC4)cc(-c4ccc(F)cc4)cc23)no1 [Example 25, (R)-6-(4-fluorophenyl)-N-(1-(5-methyl-1,2,4-oxadiazol-3-yl)ethyl)-8-(piperazin-1-ylsulfonyl)quinazolin-4-amine] | 316 to 3160 nM
17 | Cc1nnc(C(C)Nc2ncnc3c(S(=O)(=O)N(C)C)cc(-c4ccc(F)cc4)cc23)s1 (stereo not shown) [Example 14, 6-(4-fluorophenyl)-N,N-dimethyl-4-((1-(5-methyl-1,3,4-thiadiazol-2-yl)ethyl)amino)quinazoline-8-sulfonamide] | < 316 nM
18 | COC(=O)N1CCCC(COc2cc(-c3ccc(F)cc3)cc3c(NCc4ccc(C)nn4)ncnc23)C1 (stereo not shown) [Example 66, Methyl 3-[6-(4-fluorophenyl)-4-[(6-methylpyridazin-3-yl)methylamino]quinazolin-8-yl]oxymethyl]piperidine-1-carboxylate] | 316 to 3160 nM
19 | Cc1ccc(CNc2ncnc3c(OCc4nnc(C5CC5)s4)cc(-c4ccc(F)cc4)cc23)nn1 [Example 60, 8-[(5-cyclopropyl-1,3,4-thiadiazol-2-yl)methoxy]-6-(4-fluorophenyl)-N-[(6-methylpyridazin-3-yl)methyl]quinazolin-4-amine] | < 316 nM
20 | Cc1ccc([C@@H](C)Nc2ncnc3c(S(=O)(=O)N(C)C)cc(-c4ccc(F)cc4)cc23)nn1 [Example 13, (R)-6-(4-fluorophenyl)-N,N-dimethyl-4-((1-(6-methylpyridazin-3-yl)ethyl)amino)quinazoline-8-sulfonamide] | < 316 nM
21 | Cc1ccc(-c2cc(OCC(F)F)c3ncnc(NCc4ccc(C)nn4)c3c2)nc1 [Example 8, 8-(2,2-Difluoroethoxy)-N-((6-methylpyridazin-3-yl)methyl)-6-(5-methylpyridin-2-yl) quinazolin-4-amine] | < 316 nM
22 | Cc1ccc(CNc2ncnc3c(OCCOCCO)cc(-c4ccc(F)cc4)cc23)nn1 [Example 55] | < 316 nM
23 | CSc1cc(-c2ccc(F)cc2)cc2c(N[C@H](C)c3ccc(C)nn3)ncnc12 [Example 26, (R)-6-(4-fluorophenyl)-N-(1-(6-methylpyridazin-3-yl)ethyl)-8-(methylthio)quinazolin-4-amine] | 316 to 3160 nM
24 | CON(C)C(=O)COc1cc(-c2ccc(F)cc2)cc2c(NCc3ccc(C)nn3)ncnc12 [Example 54, 2-[6-(4-fluorophenyl)-4-[(6-methylpyridazin-3-yl)methylamino]quinazolin-8-yl]oxy-N-methoxy-N-methyl-acetamide] | < 316 nM
25 | CNS(=O)(=O)c1cc(-c2ccc(F)cc2)cc2c(NC(C)c3nnc(C)s3)ncnc12 (stereo not shown) [Example 23] | 316 to 3160 nM
26 | Cc1ccc(CNc2ncnc3c(OCc4noc(C)n4)cc(-c4ccc(F)cc4)cc23)nn1 [Example 58, 6-(4-fluorophenyl)-8-[(5-methyl-1,2,4-oxadiazol-3-yl)methoxy]-N-[(6-methylpyridazin-3-yl)methyl]quinazolin-4-amine] | < 316 nM
27 | COC(=O)N1CCC(COc2cc(-c3ccc(F)cc3)cc3c(NCc4ccc(C)nn4)ncnc23)CC1 [Example 64, Methyl 4-[[6-(4-fluorophenyl)-4-[(6-methylpyridazin-3-yl)methylamino]quinazolin-8-yl]oxymethyl]piperidine-1-carboxylate] | 316 to 3160 nM

Same assay, conditions: comparative example; read-out: activity on receptor P2X3 expressed as pIC50 (converted)

Row | IC50 | SMILES
28 | > 31600 nM | O=C(NC1CCOc2ccc(-c3ccc(F)cc3)cc21)c1cnc(C(F)(F)F)nc1 (stereo not shown) [comparative Example A, N-(6-(4-fluorophenyl)chroman-4-yl)-2-(trifluoromethyl)pyrimidine-5-carboxamide, reference compound]

From patent publication US20240025880A1 (CHIESI FARMACEUTICI S.P.A., priority 2020, published 2024)
